From patent US20060025566A1, “Macrocyclic modulators of the ghrelin receptor” (Tranzyme Pharma Inc., priority 2003, published 2006)
pEC50, pKi: −log10 of the molar value. Where two headings read alike, the source gives them in different places.

What was measured:
[1] = biological target: T1, human growth hormone secretagogue receptor (hGHS-R1a) (Homo sapiens, UniProt Q92847); experiment: Competitive radioligand binding assay (ghrelin receptor), [125I]-ghrelin displacement on GHS-R/HEK 293 membranes; details: read-out: Ki
T1 construct: purchased PerkinElmer BioSignal #RBHGHSM, lot#1887; host or cells: HEK-293, stably transfected (membranes)

[2] = biological target: human ghrelin receptor (hGHS-R1a) (Homo sapiens, UniProt Q92847); experiment: Aequorin functional assay (ghrelin receptor), CHO-K1 cells co-expressing Gα16 and aequorin; format: cell-based; details: functional (agonist) activity, standard method; TFA salts unless otherwise noted
From the text: Coelenterazine (Molecular Probes, Leiden, The Netherlands). […] Compound Handling
• 1. […] Key Aspects of Method • 1. […] Results

[3] = biological target: motilin receptor (Homo sapiens, UniProt O43193); experiment: Selectivity for the ghrelin receptor versus the motilin receptor; format: binding
From the text: The level of agonist activity and selectivity for representative compounds of the invention are shown below in Table 4.

[4] = tested on: gastric emptying in fasted rats; experiment: Gastric emptying in fasted rats (phenol red methylcellulose meal); format: in vivo, rat
Experimental: To examine the effects of compounds of the invention in a model for gastroparesis, compounds were evaluated for possible effects on gastric emptying in fasted rats.
GHRP-6 and test samples were dissolved in vehicle of 9% HPBCD/0.9% NaCl. Immediately following oral administration of methylcellulose (2%) containing phenol red (0.05%) (2 mL/rat), test substances or vehicle (9% HPBCD/0.9% NaCl) were each administered intravenously (i.v.) at a dosing volume of 5 mL/kg.
Male Wistar rats were provided by LASCO (A Charles River Licensee Corporation, Taiwan). Space allocation for 6 animals was 45×23×15 cm. Animals were housed in APEC® cages and maintained in a controlled temperature (22° C.-24° C.) and humidity (60%-80%) environment with 12 h light, 12 h dark cycles for at least one week in the laboratory prior to being used. Free access to standard lab chow for rats (Lab Diet, Rodent Diet, PMI Nutrition International, USA) and tap water was granted. All aspects of this work including housing, experimentation and disposal of animals were performed in general accordance with the Guide for the Care and Use of Laboratory Animals (National Academy Press, Washington, D.C., 1996).
Test substances were each administered intravenously to a group of 5 O/N-fasted Wistar derived male rats weighing 200±20 g immediately after methylcellulose (2%) containing phenol red (0.05%) was administered orally at 2 mL/animal. […] Following protein precipitation by 20% trichloroacetic acid (0.5 mL) and re-alkalization of the supernatant with 0.1 N NaOH, total phenol red remaining in the stomach was determined by a colorimetric method at 560 nm. A 30 percent or more (≧30%) increase in gastric emptying, detected as the decrease in phenol red concentration in the stomach relative to the vehicle control group, is considered significant.
• 1. […] Total phenol red remaining in the stomach was quantified by a colorimetric method at 560 nm. • 5. A >30% increase in gastric emptying, detected based on the phenol red concentration in comparison to the control group, is considered significant. […]

[5] = tested on: morphine-treated rats; experiment: Model of opioid-delayed gastric emptying and gastrointestinal transit (morphine) in rats; format: in vivo, rat; details: 3 mg/kg s.c., FIG. 16A
From the text: 7. The Effect of Compounds of the Invention on Gastric Emptying and Gastrointestinal Transit in a Model of Opioid-Delayed Gastric Emptying
Opioid analgesics, such as morphine, are well known to delay gastrointestinal transit which is an important side-effect for this class of drugs. The clinical term for this syndrome is opioid bowel dysfunction (OBD). Importantly, patients recovering from abdominal surgery experience post-operative ileus that is further exacerbated by concomitant opioid therapy for post-surgical pain.
• 1. […] Methods • 1. Rats (male, Sprague-Dawley, 250-300 g) are implanted with jugular vein catheters to accommodate dosing of test articles. • 2. Overnight-fasted rats are administered morphine (3 mg/kg s.c.). • 3. […] Radioactivity (^99mTc) in each tissue isolate is measured as a means of measuring the transit of the meal. Results

[6] = Pharmacokinetic analysis in rats (i.v., s.c., p.o.); format: in vivo; details: rat, typical dose 2 mg/kg
Experimental: D. Pharmacokinetic Analysis of Representative Compounds of the Invention
Typical Dose • 1. Intravenous (i.v.): 2 mg/kg • 2. Subcutaneous (s.c): 2 mg/kg
Plasma Collection • 1. Same protocol for all dosing groups • 2.
Whole blood samples were chilled and immediately processed by centrifugation to obtain plasma.
Plasma samples were stored frozen (−70° C.) until analysis.

[7] = binding activity at the human ghrelin receptor, [125I]-ghrelin displacement
[8] = binding activity, standard method, TFA salts unless otherwise noted
[9] = binding activity at the human ghrelin receptor, [125I]-ghrelin competition, GHS-R/HEK 293 membranes

motilin receptor, sequence (O43193 whole entry): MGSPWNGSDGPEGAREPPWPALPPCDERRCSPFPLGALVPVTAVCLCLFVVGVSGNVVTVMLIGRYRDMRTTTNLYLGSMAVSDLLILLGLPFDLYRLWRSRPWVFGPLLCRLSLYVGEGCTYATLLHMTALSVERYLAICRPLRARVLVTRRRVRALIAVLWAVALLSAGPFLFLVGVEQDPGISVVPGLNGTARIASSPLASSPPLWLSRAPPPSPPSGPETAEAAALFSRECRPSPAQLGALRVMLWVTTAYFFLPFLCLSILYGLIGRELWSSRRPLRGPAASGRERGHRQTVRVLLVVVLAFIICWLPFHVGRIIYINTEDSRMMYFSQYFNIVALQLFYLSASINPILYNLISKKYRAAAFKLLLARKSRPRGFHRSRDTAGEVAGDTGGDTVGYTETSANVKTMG
human ghrelin receptor (hGHS-R1a), sequence (Q92847 whole entry): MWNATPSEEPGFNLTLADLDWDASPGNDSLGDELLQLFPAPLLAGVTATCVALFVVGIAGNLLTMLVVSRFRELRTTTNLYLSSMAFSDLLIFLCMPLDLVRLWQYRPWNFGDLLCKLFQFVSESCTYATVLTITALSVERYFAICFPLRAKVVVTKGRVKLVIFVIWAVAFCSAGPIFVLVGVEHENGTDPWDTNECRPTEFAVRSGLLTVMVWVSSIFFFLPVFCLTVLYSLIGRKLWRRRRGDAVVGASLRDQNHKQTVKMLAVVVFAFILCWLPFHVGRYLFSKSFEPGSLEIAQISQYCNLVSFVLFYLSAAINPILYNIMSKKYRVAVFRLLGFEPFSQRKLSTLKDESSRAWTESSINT
T1 sequence (Q92847 whole entry): as above

SMILES | pKi [1, 8] | pEC50 [2] | Selectivity [3] | pKi [1, 9] | other results
CC1C(=O)NC(Cc2ccc(F)cc2)C(=O)NCCCc2ncccc2OCCNC(C2CC2)C(=O)N1C (single isomer, unassigned) [306a] | 7.00 to 8.00 | 7.00 to 9.00 | 714/1 |  | pKi [1, 7]: 7.00 to 8.00
CC1C(=O)NC(Cc2ccc(F)cc2)C(=O)NCC2CC2c2ccccc2OCCNC(C2CC2)C(=O)N1C (single isomer, unassigned) [389a] | 7.00 to 8.00 | 6.00 to 7.00 | 450/1 |  | 
CC(C)C[C@@H]1NCCOc2ccccc2C=CCNC(=O)[C@H](Cc2ccccc2Cl)NC(=O)C2(CCCC2)NC1=O (stereo in doubt) [compound 20] | 8.00 to 10.00 | 7.00 to 9.00 | 1044/1 | 8.00 to 10.00 | 
CCCCC1NCCOc2ccccc2CCCNC(=O)C(Cc2ccccc2)NC(=O)CN(C)C1=O (stereo not drawn) [Compound 1] |  |  | 142/1 |  | 
CCCC1NCCOc2ccccc2CCCNC(=O)C(Cc2ccccc2)NC(=O)C(C)N(C)C1=O (stereo not drawn) [Compound 4] | 7.00 to 8.00 | 7.00 to 9.00 | 3012/1 | 7.00 to 8.00 | 
CCN(CC)CCNC(=O)c1cc(Cl)c(N)cc1OC [Metoclopramide, reference compound] |  |  |  |  | gastric emptying of a solid meal in naïve rat ([4]; i.v. immediately after meal, FIG. 14): significant gastric emptying
CN1CC[C@]23c4c5ccc(O)c4O[C@H]2[C@@H](O)C=C[C@H]3[C@H]1C5 [Morphine, morphine] |  |  |  |  | gastric emptying and intestinal transit [5]: significantly delayed gastric emptying and intestinal transit
CCCC1NCCOc2ccccc2CCCNC(=O)C(Cc2ccc(O)cc2)NC(=O)CN(C)C1=O (stereo not drawn) [compound 7] |  |  | >100/1 |  | 
C[C@@H]1C(=O)N[C@H](Cc2ccccc2)C(=O)NCCCc2ccccc2OCCN[C@@H](C2CC2)C(=O)N1C [compound 17] | 8.00 to 10.00 | 7.00 to 9.00 | 2500/1 | 8.00 to 10.00 | 
CC(C)C1NCCOc2ccccc2C=CCNC(=O)C(Cc2ccccc2)NC(=O)C(C)N(C)C1=O (stereo not drawn) [compound 19] | 6.00 to 7.00 |  | >1700/1 |  | 
CC(C)CC1NCCOc2ccccc2C=CCNC(=O)C(Cc2cccc(Cl)c2)NC(=O)C2(CCCC2)NC1=O (stereo not drawn) [compound 21] | 8.00 to 10.00 | 7.00 to 9.00 | 1078/1 | 8.00 to 10.00 | 
CC[C@H](C)[C@@H]1NCCOc2ccccc2CCCNC(=O)[C@@H](Cc2cccc(Cl)c2)NC(=O)[C@@H](C)N(C)C1=O [compound 24] | 8.00 to 10.00 |  | 3039/1 | 8.00 to 10.00 | 
CCC(C)C1NCCOc2ccccc2CCCNC(=O)C(Cc2ccc(Cl)cc2)NC(=O)C(C)N(C)C1=O (stereo not drawn) [compound 25] |  |  |  | 8.00 to 10.00 | Clearance [6]: 4.02 L/h/kg; Elimination (t1/2, min) [6]: 31 min; gastric emptying ([4]; fasted rats, 30 μg/kg): demonstrated gastric emptying; increase in gastric emptying relative to the vehicle control group ([4]; fasted rats, 100 μg/kg i.v.): 39%
CC[C@H](C)[C@@H]1NCCOc2ccccc2CCCNC(=O)[C@@H](Cc2ccc(F)cc2)NC(=O)[C@@H](C)N(C)C1=O [compound 26] | 8.00 to 10.00 | 7.00 to 9.00 | >7700/1 | 8.00 to 10.00 | 
CCC(C)C1NCCOc2ccccc2CCCNC(=O)C(Cc2ccc(OC)cc2)NC(=O)C(C)N(C)C1=O (stereo not drawn) [compound 27] | 8.00 to 10.00 | 7.00 to 9.00 | >7100/1 | 8.00 to 10.00 | 
CC[C@H](C)[C@@H]1NCCOc2ccccc2CCCNC(=O)[C@@H](Cc2ccc3ccccc3c2)NC(=O)[C@@H](C)N(C)C1=O [compound 31] | 8.00 to 10.00 | 7.00 to 9.00 | 4900/1 | 8.00 to 10.00 | 

SMILES | pKi [1, 8] | pEC50 [2] | Selectivity [3] | pKi [1, 9] | other results
CCC(C)C1NCCOc2ccccc2CCCNC(=O)C(Cc2cccs2)NC(=O)C(C)N(C)C1=O (stereo not drawn) [compound 34] |  |  | >1000/1 |  | 
CCCC1NCCOc2ccccc2C=CCNC(=O)C(Cc2ccccc2)NC(=O)C(C)N(C)C1=O (stereo not drawn) [compound 39] |  |  | 3400/1 |  | 
CCC(C)C1NCCOc2ccccc2C=CCNC(=O)C(Cc2ccccc2)NC(=O)C(C)N(C)C1=O (stereo not drawn) [compound 40] |  |  | >3300/1 |  | 
CCC(C)C1NCCOc2ccccc2CCCNC(=O)C(Cc2ccccc2)NC(=O)C(C)N(CC)C1=O (stereo not drawn) [compound 43] | 7.00 to 8.00 |  | 3700/1 | 7.00 to 8.00 | 
CCC(C)C1NCCOc2ccccc2CCCNC(=O)C(CC(C)C)NC(=O)C(C)N(C)C1=O (stereo not drawn) [compound 176] |  |  | 105/1 |  | 
CCC(C)C1NCCOc2cccnc2CCCNC(=O)C(Cc2ccccc2)NC(=O)C(C)N(C)C1=O (stereo not drawn) [compound 177] |  |  | >100/1 |  | 
CCC(C)C1NCCOc2ccc(C(=O)O)cc2CCCNC(=O)C(Cc2ccccc2)NC(=O)C(C)N(C)C1=O (stereo not drawn) [compound 197] |  |  | 100/1 |  | 
C[C@@H]1C(=O)N[C@H](Cc2ccc(O)c(C(C)(C)C)c2)C(=O)NCCCc2ccccc2OCCN[C@@H](C2CC2)C(=O)N1C [compound 311] | 7.00 to 8.00 |  | 21/1 |  | 
CC1C(=O)NC(Cc2ccc(Cl)cc2Cl)C(=O)NCCCc2ccccc2OCCNC(C2CC2)C(=O)N1C (stereo not drawn) [compound 314] | 8.00 to 10.00 | 7.00 to 9.00 | >5500/1 |  | pKi [1, 7]: 8.00 to 10.00
O=C1NC/C=C/c2ccccc2OCCN[C@@H](C2CC2)C(=O)NC2(CCCC2)C(=O)N[C@H]1Cc1cccc(Cl)c1 [compound 346] | 7.00 to 8.00 | 7.00 to 9.00 |  |  | pKi [1, 7]: 7.00 to 8.00
CCC(C)C1NCCCCCCCCNC(=O)C(Cc2cccc(Cl)c2)NC(=O)C2(CCCC2)NC1=O (stereo not drawn) [compound 363] |  |  | 35/1 |  | 
CC1C(=O)NC(Cc2ccc(F)cc2)C(=O)NCCCc2cc(NS(C)(=O)=O)ccc2OCCNC(C2CC2)C(=O)N1C (stereo not drawn) [compound 374] |  |  | 250/1 |  | 
CCC(C)C1NCCOc2ccc(F)cc2CCCNC(=O)C(Cc2cccc(Cl)c2)NC(=O)C2(CCCC2)NC1=O (stereo not drawn) [compound 382] |  |  | 74/1 |  | 
CCC(C)C1NCCOc2ccccc2C2CC2CNC(=O)C(Cc2cccc(Cl)c2)NC(=O)C2(CCCC2)NC1=O (stereo not drawn) [compound 388] |  |  | 400/1 |  | 
CC1COc2ccccc2CCCNC(=O)C(Cc2ccc(F)cc2)NC(=O)C(C)N(C)C(=O)C(C2CC2)N1 (stereo not drawn) [compound 394] |  |  | 1700/1 |  | 
CCC(C)C1NCCOc2ccccc2CCCNC(=O)C(Cc2ccc(O)cc2)NC(=O)C(C)N(C)C1=O (stereo not drawn) [compound 445] | 7.00 to 8.00 | 7.00 to 9.00 |  |  | pKi ([1]; second table titled 3C (compounds 435-449), human ghrelin receptor): 7.00 to 8.00
